Source: PMC5209880, “Mobilization of hematopoietic stem cells with the novel CXCR4 antagonist POL6326 (balixafortide) in healthy volunteers—results of a dose escalation trial” (Journal of Translational Medicine, 2017)
Read-outs that look alike come from different tables or passages of the source.

Legend:
[1] = system: leukocytes; test: Mobilization of mature hematopoietic cells (blood counts, flow cytometry); assay type: in vivo, human
Method: (§1) Blood samples were collected at the indicated times (Figs. 1, 2, 3, 4, 5 and 6) and kept at room temperature (maximum 2–3 h.) until immediately before analysis. Complete blood counts were assessed with the Sysmex XT1800 hematology analyzer (Norderstedt, Germany). CD34+ cells were quantified using the single platform flow cytometry analysis with the SCE Kit [Becton–Dickinson (BD), Heidelberg, Germany] according to the manufacturer’s instructions and ISHAGE guidelines. In addition, multi-parametric flow cytometric analyses were performed to quantify co-mobilized mature cell subsets such as T (CD45+ CD3+), B (CD45+ CD19+) and NK (CD45+ CD56+ 16+) cells (Multitest, T cells, BD), T cell subpopulations (CD45+ CD3+ CD4+/CD8+, Multitest, TBNL cells, BD) and monocytes (CD45+ CD14+, all from BD). In addition, plasmacytoid dendritic cell progenitors (pro-pDCs) were identified as CD45dimCD34dimCD45RA + CD123high (all moABs from BD). Lyse-no-wash protocols were used in conjunction with BD counting beads for direct cell enumeration for CD34+ cells and T cell subsets; all other cell concentrations were calculated using frequencies relative to directly enumerated cell species, such as CD34+, CD45+ or CD3+ cells.

[2] = system: healthy male volunteers; test: Subjective rating questionnaire of G-CSF vs. balixafortide at follow-up; settings: number of responses
[3] = system: healthy male volunteers; test: Phase I dose escalation trial: safety and tolerability, adverse events
Method: Additional eligibility (inclusion) criteria for treatment with balixafortide were the same as for G-CSF mobilized stem cell donation. Between G-CSF mobilization/HSPC donation and study participation there was a wash-out period of at least 6 weeks.
Study drug was administered on an in-patient basis in the phase I clinical trial unit of Goethe University Medical Center, the ‘Klinisches Studienzentrum Rhein-Main’. Volunteers were discharged 24 h after treatment, to return for a follow-up appointment 8–14 days thereafter.
(§2) A total of 27 volunteers were treated with balixafortide. A treatment consisted of a single intravenous infusion of balixafortide in normal saline at doses of 500, 1000, 1500, 2000 and 2500 μg/kg, based on actual weight, followed by sequential clinical and blood analyses (see below). Initially conceived as a classical 3 + 3 dose escalation design, the volunteers were assigned to four groups defined by increasing dose levels of balixafortide (500, 1000, 1500, and 2000 μg/kg) administered by constant rate infusion at over 2 h. Subsequently, amendments were added to test additional modalities: Group 6 received 2500 μg/kg under the same conditions. Volunteers assigned to Group 5 received a dose level of 2000 μg/kg by an continuously increasing infusion rate (ramp-infusion instead of constant rate infusion) applied over 2 h. In group 7, a dose level of 1000 μg/kg was infused over 1 h at a constant rate and compared (intra-individually) to the 2 h infusion given with an interval of ≥4 weeks. A second balixafortide treatment was furthermore tested in volunteers from groups 2, 3 and 6 with groups 2 and 3 receiving 2500 μg/kg and group 6 given 1500 μg/kg as the second infusion. […] Thus, to allow for intra-individual comparison, 12 donors received a second dose of balixafortide (2 h constant infusion rate for all) after a minimum wash-out period of 4 weeks.
Vital signs were monitored immediately prior to and in the first 24 h after the start of the infusion of balixafortide; serial blood samples were drawn for biochemical safety profiling and pharmacokinetic/pharmacodynamic analyses. Given the cationic nature of the compound [17] the risk of local or systemic symptoms of histamine release was identified and anti-histamine treatment was proposed (per protocol) in case of such symptoms. […] Volunteers who received prophylactic or therapeutic anti-histamine medication are listed accordingly in Table 1.

[4] = system: CD34+ cells (HSPC); test: Mobilization of CD34+ cells, single platform flow cytometry of blood; assay type: in vivo, human
Method: A total of 27 volunteers were treated with balixafortide.
as §1

[5] = Pharmacokinetics from serial plasma samples after intravenous infusion
Method: as §2
Plasma samples were collected at the indicated times and kept frozen until immediately before analysis.
Serial plasma samples were assayed for balixafortide concentrations and pharmacokinetic parameters were calculated using Phoenix WinNonlin 6.4.

[6] = system: CD34+ cells; settings: cited from earlier work
Text: The ability of CXCR4 antagonists to rapidly dislodge stem cells from the marrow has been recognized for many years. Previously studied compounds were neither universally well tolerated nor very potent. The only currently approved CXCR4 antagonist plerixafor mobilized a median of 16 CD34+ cells per µL when administered alone (without G-CSF) in healthy donors, which is barely sufficient to generate a normal-sized graft in two apheresis sessions. || The comparator agent in our study was G-CSF given in split doses as is routine practice in our center; the rationale is twofold: more efficient mobilization and potentially better tolerability. […] Thus the advantage in efficiency of single-dose G-CSF vs. balixafortide at the doses tested here would be les ...

[7] = system: patients receiving a plerixafor-mobilized graft; settings: recipients of a plerixafor-mobilized graft; cited from earlier work
[8] = system: CFU-C (HSPC); test: Circulating colony-forming units-culture (CFU-C) in methylcellulose media; assay type: in vivo, human; settings: all doses, mean ± SEM
Text: Circulating colony-forming units-culture (CFU-C) were quantified by plating aliquots of lysed peripheral blood in commercial cytokine-replete methylcellulose media (StemMACS HSC-CFU lite with Epo, human, Miltenyi Biotec GmbH, Bergisch-Gladbach, Germany).

[9] = system: healthy male volunteers; settings: in vivo
[10] = system: plasmacytoid dendritic cell progenitors (pro-pDCs); test: Mobilization of plasmacytoid dendritic cell progenitors (pro-pDCs), flow cytometry; assay type: in vivo, human; settings: balixafortide 1st treatment, constant infusion rate, 2 h; n = 21, mean ± SEM
Method: as §1

[11] = 500 μg/kg, 2 h const. infusion, n = 3 volunteers
[12] = 1000 μg/kg, 1 h const. infusion, n = 3 volunteers
[13] = 1000 μg/kg, 2 h const. infusion, n = 7 volunteers
[14] = 1500 μg/kg, 2 h const. infusion, n = 7 volunteers
[15] = 2000 μg/kg, 2 h const. infusion, n = 6 volunteers
[16] = 2000 μg/kg, 2 h ramp infusion, n = 3 volunteers
[17] = 2500 μg/kg, 2 h const. infusion, n = 10 volunteers

In the case of `C[C@@H]1NC(=O)[C@H](Cc2c[nH]cn2)NC(=O)[C@H](Cc2ccc(O)cc2)NC(=O)[C@@H]2CCCN2C(=O)[C@H]2CCCN2C(=O)[C@H](CCCCN)NC(=O)[C@H](CCC(N)=O)NC(=O)[C@H](Cc2ccc(O)cc2)NC(=O)[C@@H]2CSSC[C@H](NC1=O)C(=O)N[C@@H](CO)C(=O)N[C@@H](C)C(=O)N1CCC[C@@H]1C(=O)N[C@@H](CCN)C(=O)N[C@@H](CCCNC(=N)N)C(=O)N[C@@H](Cc1ccc(O)cc1)C(=O)N2` [balixafortide], the “Mature cells mobilized relative to G-CSF” value ([1]; doses of 1500-2500 µg/kg) is reported as “approximately half as many mature cells as G-CSF”, the “White blood counts (WBCs) reached” value ([1]; doses of 1500-2500 µg/kg, mean ± SEM) is reported as 25.3 ± 1.4 × 10*3 WBC/µL and the “Side effects in the course of treatment: Abdominal pain” value [2] is reported as 0. For the same molecule, the “Side effects in the course of treatment: Bone pain” value [2] was 0, the “Side effects in the course of treatment: Fatigue” value [2] was 4 and the “Side effects in the course of treatment: Fever” value [2] was 0. The “Side effects in the course of treatment: Flu-like symptoms” value [2] was 0, the “Side effects in the course of treatment: Headache” value [2] was 1 and the “Side effects in the course of treatment: Insomnia” value [2] was 1. For the same molecule, the “Side effects in the course of treatment: Palpitation” value [2] was 0, the “Side effects in the course of treatment: Skin reactions” value [2] was 13 and the “Side effects in the course of treatment: Sweating” value [2] was 1. For the same molecule, the “Side effects in the course of treatment: Vomiting” value [2] was 1, the “Mild skin reactions such as flushing, urticaria or local itching, volunteers reporting” value (“Mild skin reactions such as flushing” for short) ([3]; 500 µg/kg) was 1/3 and the “Infusion site erythema (volunteers with AE)” value [3, 11] was 1. For the same molecule, the “Volunteers with AE” value [3, 11] was 1, the “Mild skin reactions such as flushing” value ([3]; 1000 µg/kg) was 4/10 and the “Pruritus (volunteers with AE)” value [3, 12] was 1. The “Volunteers with AE” value [3, 12] was 1, the “BP increase (volunteers with AE)” value [3, 13] was 2 and the “Infusion site pruritus (volunteers with AE)” value [3, 13] was 1. For the same molecule, the “Pruritus (volunteers with AE)” value [3, 13] was 2, the “Volunteers with AE” value [3, 13] was 5 and the “Mild skin reactions such as flushing” value ([3]; 1500 µg/kg) was 2/7. For the same molecule, the “Erythema (volunteers with AE)” value [3, 14] was 1, the “Infusion site erythema (volunteers with AE)” value [3, 14] was 2 and the “Infusion site irritation (volunteers with AE)” value [3, 14] was 1. For the same molecule, the “Infusion site pruritus (volunteers with AE)” value [3, 14] was 1, the “Pruritus (volunteers with AE)” value [3, 14] was 1 and the “Urticaria (volunteers with AE)” value [3, 14] was 1. For the same molecule, the “Volunteers with AE” value [3, 14] was 2, the “Mild skin reactions such as flushing” value ([3]; 2000 µg/kg) was 8/9 and the “Blood CK increased (volunteers with AE)” value [3, 15] was 2. The “Bone pain (volunteers with AE)” value [3, 15] was 1, the “Erythema (volunteers with AE)” value [3, 15] was 4 and the “Flushing (volunteers with AE)” value [3, 15] was 1. For the same molecule, the “Hypoasthesia (volunteers with AE)” value [3, 15] was 1, the “Pruritus (volunteers with AE)” value [3, 15] was 4 and the “Urticaria (volunteers with AE)” value [3, 15] was 1. For the same molecule, the “Volunteers with AE” value [3, 15] was 6, the “Flushing (volunteers with AE)” value [3, 16] was 1 and the “Pruritus (volunteers with AE)” value [3, 16] was 2. For the same molecule, the “Volunteers with AE” value [3, 16] was 2, the “Mild skin reactions such as flushing” value ([3]; 2500 µg/kg) was 7/10 and the “Erythema (volunteers with AE)” value [3, 17] was 7. For the same molecule, the “Feeling hot (volunteers with AE)” value [3, 17] was 1, the “Headache (volunteers with AE)” value [3, 17] was 1 and the “Hypoasthesia (volunteers with AE)” value [3, 17] was 1. For the same molecule, the “Hypoasthesia oral (volunteers with AE)” value [3, 17] was 2, the “Muscle tightness (volunteers with AE)” value [3, 17] was 1 and the “Throat tightness (volunteers with AE)” value [3, 17] was 1. The “Vertigo (volunteers with AE)” value [3, 17] was 1, the “Volunteers with AE” value [3, 17] was 7 and the “Severe adverse events (SAEs)” value ([3]; all doses 500-2500 µg/kg, 27 volunteers, 39 doses) was “No severe adverse events (SAEs) were observed”. The “Systolic blood pressure reading of >150 mmHg, considered possibly related to study drug” value ([3]; whole trial) was 2 subjects, the “Unexplained elevation in serum creatinine kinase, considered possibly related to study drug” value ([3]; whole trial) was 2 subjects and the “Time of peak CD34+ mobilization after the end of the infusion” value ([4]; 500 µg/kg) was 1 h. For the same molecule, the “Time of peak CD34+ mobilization after the end of the infusion” value ([4]; doses higher than 500 µg/kg) was “approximately 4 h”, the “Mean peak mobilization of CD34+ cells” value ([4]; doses of 1500-2500 µg/kg, single i.v. infusion, mean ± SEM) was 38.2 ± 2.8 CD34+ cells/µL and the Volume of distribution ([5]; human plasma, i.v. infusion 500-2500 µg/kg, Phoenix WinNonlin 6.4, approximately) was 0.5 to 0.6 L/kg. The Clearance ([5]; human, i.v. infusion) was “almost equal to the glomerular filtration rate”, the “Dose dependence of Cmax and AUC” value ([5]; human, i.v. infusion 500-2500 µg/kg, n = 3-6) was “dose linearity for both Cmax and AUC” and the half-life ([5]; human, plasma, iv) was ~5 h.

In the case of `c1cc(CN2CCCNCCNCCCNCC2)ccc1CN1CCCNCCNCCCNCC1` [plerixafor, reference compound], the “Median CD34+ cells mobilized” value ([6]; administered alone (without G-CSF) in healthy donors) is listed as 16 CD34+ cells per µL and the “Patients who developed acute GvHD 3° or 4°” value [7] is listed as 1/20.

B1: filgrastim (protein, UniProt P09919 31-207, looked up)
Granulocyte …: TPLGPASSLPQSFLLKCLEQVRKIQGDGAALQEKLVSECATYKLCHPEELVLLGHSLGIPWAPLSSCPSQALQLAGCLSQLHSGLFLYQGLLQALEGISPELGPTLDTLQLDVADFATTIWQQMEELGMAPALQPTQGAMPAFASAFQRRAGGVLVASHLQSFLEVSYRVLRHLAQP
modifications: filgrastim, N-terminal Met
notes: cytokine, standard hematopoietic stem and progenitor cell mobilizing agent
In the case of B1, the “Average CD34+ cell counts” value ([6]; same daily dose as a single injection) is given as “mid-sixties’ range”, the “Ratio between T-lymphocytes and CD34+ cells in mobilized blood” value ([1]; mean ± SEM) is given as 26.2 ± 1.98 :1 and the “Clonogenicity: mobilized CD34+ cells per 1 CFU-C” value [8] is given as 3.2 ± 0.2 CD34+ cells. The “Side effects in the course of treatment: Abdominal pain” value [9] was 2, the “Side effects in the course of treatment: Bone pain” value [9] was 24 and the “Side effects in the course of treatment: Fatigue” value [9] was 11. The “Side effects in the course of treatment: Fever” value [9] was 2, the “Side effects in the course of treatment: Flu-like symptoms” value [9] was 21 and the “Side effects in the course of treatment: Headache” value [9] was 11. For the same molecule, the “Side effects in the course of treatment: Insomnia” value [9] was 0, the “Side effects in the course of treatment: Palpitation” value [9] was 1 and the “Side effects in the course of treatment: Skin reactions” value [9] was 1. For the same molecule, the “Side effects in the course of treatment: Sweating” value [9] was 0, the “Side effects in the course of treatment: Vomiting” value [9] was 0 and the “Mobilization of pDC progenitors (% of CD34+CD45dim)” value [10] was 2.18±0.34%. The “Mobilization response of CD34+ cells” value ([4]; 5-day course of filgrastim 7.5-10 µg/kg per day in 2 divided doses, mean ± SEM) was 121.6 ± 8.6 CD34+ cells/μL and the “Effectiveness of G-CSF regimen relative to balixafortide, CD34+ mobilization” value ([4]; intra-individual comparison, balixafortide 1500-2500 µg/kg, on average) was “about three times as effective”.
